Experimental data as given in PubChem BioAssay AID2305 (GlaxoSmithKline (GSK), 2010).

Test system: P. falciparum 3D7 growth, pLDH absorbance
Experiment: P. falciparum 3D7 growth inhibition, dose response, strain 3D7 (AID 2305)

Row | Compound | IC50
1 | COc1cccc(COCC(O)CN(CCc2ccccn2)C(=O)c2ccccc2F)c1 (stereo not given) | 820 nM
2 | COc1cccc(OCC2CCCN(CCCCNC(=O)c3ccc(NC(=O)c4ccc(Cl)cc4)cc3)C2)c1 (stereo not given) | 750 nM
3 | CN1CCN(c2ccnc3ccc(NC(=O)Nc4ccc(-c5ccncc5)c5ccccc45)cc23)CC1 | 310 nM
4 | CCCNCc1ccc(-c2ccc(CN(CCOC)C(=O)CCc3ccc(OC)cc3)cc2)nc1 | 980 nM
5 | O=C(Nc1ccc(Br)c(Cl)c1)c1cc([N+](=O)[O-])cc2cn[nH]c12 | 1060 nM
6 | Clc1ccc(CCNCCCCCCNCCc2ccc3c(c2)OCO3)cc1 | 1730 nM
7 | COc1ccc(NC(=O)/C=C/c2ccccc2Cl)cc1OCCN1CCC(O)(c2ccc(Cl)c(C(F)(F)F)c2)CC1 | 640 nM
8 | Oc1ccc(Cl)cc1CN1CCCC(COC(c2ccc(F)cc2)c2ccc(F)cc2)C1 (stereo not given) | 680 nM
9 | COc1ccc2c(NN=Cc3ccc([N+](=O)[O-])cc3)ccnc2c1 | 340 nM
10 | CCCc1cc2c3c(N)nc(N)nc3ccc2n1CC | 50 nM
11 | COC(=O)c1ccc2c(c1)nc(Nc1cccc(F)c1)n2CC(O)c1ccccn1 (stereo not given) | 730 nM
12 | CCOc1cc(CC)ccc1C1CCN(CCCCNC(=O)c2ccc(NC(=O)c3ccc(C#N)cc3)cc2)CC1 | 500 nM
13 | CC(=O)Nc1ncc(C(=O)Nc2cccc(-c3ccc(-c4nc5ccccc5[nH]4)cc3)c2)s1 | 670 nM
14 | Oc1ccc(CNCCCCCCNCCc2ccc(Cl)cc2)cc1O | 990 nM
15 | Cc1ccc(CN2CCC(C(=O)Nc3ccc(-c4cc5ccccc5[nH]4)cc3)CC2)o1 | 1420 nM
16 | C[C@@H](Nc1nc(NCc2ccccc2)c2sccc2n1)c1ccccc1 | 920 nM
17 | O=C(NC1CCN(CC2(c3ccc(Cl)cc3)CCCCC2)CC1)c1ccn[nH]1 | 80 nM
18 | CN1CCCC1CCOc1ccc2c(c1)N(C(=O)Nc1cc(Br)cc(C(F)(F)F)c1)CC2 (stereo not given) | 250 nM
19 | CC(C)(C)c1ccc(S(=O)(=O)Nc2cc(Cl)ccc2Cn2ccc(N3CCNCC3)nc2=O)cc1 | 830 nM
20 | CC(C)CNCc1cccc(-c2cccc(CNc3ccc4ncccc4c3)c2)c1 | 950 nM
21 | CCNc1cc(C(=O)N[C@@H](Cc2ccccc2)[C@H](O)CNC(C)(C)CCCC(C)C)cc(N2CCCCS2(=O)=O)c1 | 450 nM
22 | Cc1cccc(Nc2nc(N)c3ccccc3n2)c1 | 570 nM
23 | CN(C)Cc1cccc(CNC(=O)c2sccc2OCc2ccc(Cl)cc2)c1 | 830 nM
24 | Cc1cccc2[nH]c(-c3ccc(-c4cccc(NC(=O)c5cncn5C)c4)s3)nc12 | 640 nM
25 | CCCc1cc(OC)c(C[C@@H]2c3cc(O)c(Cl)cc3CCN2C)cc1OC | 720 nM

Row | Compound | IC50
26 | C=CCn1c(Sc2ccc(C#N)c([N+](=O)[O-])c2)nnc1-c1cccc(Cl)c1 | 300 nM
27 | Cc1ccccc1C1CCN(C2CCC(NC(=O)/C=C/c3cccc(Cl)c3Cl)CC2)CC1 (stereo not given) | 1030 nM
28 | COc1ccc(C(C(=O)NC2CCN(C[C@H](O)c3ccnc4ccc(OC)cc34)CC2)N2CCc3ccccc3C2)cc1 (stereo not given in full) | 700 nM
29 | CC(=O)Nc1ccc(C(=O)Nc2ccc(-c3cccc(-c4nc5ccc(F)cc5[nH]4)c3)cc2)cn1 | 230 nM
30 | c1ccc(C2CCC(N3CCC(N4CCN(c5ccccc5)CC4)CC3)CC2)cc1 (stereo not given) | 760 nM
31 | Clc1cc(Nc2ncnc3sc(C#Cc4ncc[nH]4)cc23)ccc1OCc1ccccn1 | 1110 nM
32 | Cc1ccc(-c2cnc(N)c3cc(-c4ccnc(N)n4)ccc23)cc1 | 810 nM
33 | CN1CCN(CCCN(Cc2cccc(-c3cccc(CNCCc4ccccc4)c3)c2)C(=O)Nc2ccccc2)CC1 | 580 nM
34 | O=C(NCCCCN1CC=C(c2ccc3c(c2OCC2CC2)CCCC3)CC1)c1ccc(-c2ccc(C(F)(F)F)cc2)cc1 | 540 nM
35 | CCc1c(CCNCCCCCCNCCc2ccc(Br)cc2)ccc(O)c1O | 900 nM
36 | COc1ccc2nc(-c3ccccc3)cc(NN=Cc3ccncc3)c2c1 | 810 nM
37 | CN(C)CCOc1ccc2c(c1)OC(C)(C)C=C2c1cccc2ccccc12 | 780 nM
38 | NC(=O)C1CCN(Cc2cccc(-c3ccc(-c4nc5ccc(C(F)(F)F)cc5[nH]4)cc3)c2)CC1 | 610 nM
39 | CC(CNC(=O)C(c1cc2ccccc2o1)N1CCN(C(c2ccccc2)c2ccccc2)CC1)c1ccccc1 (stereo not given) | 630 nM
40 | Nc1nc2c(c(=O)[nH]1)CN(S(=O)(=O)c1ccc(C(=O)N[C@@H](CCC(=O)O)C(=O)O)cc1)CC2 | 150 nM
41 | CCN1CCC(N(CCCCCCc2ccc(C(F)(F)F)cc2)C(=O)Cn2c(CCc3cccc(F)c3F)cc(=O)c3ccccc32)CC1 | 930 nM
42 | O=C(NCCc1ccccc1)N(Cc1cccc(-c2ccc(CNC3CCCC3)cc2)c1)C1CCN(Cc2ccccc2)CC1 | 400 nM
43 | Cc1cc(N2CCN(C3CCCCC3)CC2)nc2cccc(O)c12 | 700 nM
44 | COc1cc(F)c2nccc([C@@H](O)CN3CCC(NCc4ccc5c(n4)NC(=O)CS5)CC3)c2c1 | 560 nM
45 | CCCC(C)N(Cc1ccc(C(C)(C)C)cc1)C(=O)c1cccc(C#N)c1 (stereo not given) | 1050 nM
46 | CC(C)CC(C)NC(=O)C1Cc2c([nH]c3cc(Cl)ccc23)C2(CCN(CCc3ccccc3)CC2)N1 (stereo not given) | 810 nM
47 | O=[N+]([O-])c1ccc2nccnc2c1 | 1070 nM
48 | O=C(Nc1ccccc1)N(Cc1ccc(-c2cccc(CNCc3ccc4c(c3)OCO4)c2)cc1)C1CCN(Cc2ccccc2)CC1 | 280 nM
49 | O=C(Nc1ccc(C(F)(F)F)cc1)c1cccc(S(=O)(=O)NC2CCN(Cc3ccccc3)C2)c1 (stereo not given) | 1050 nM
50 | COc1cccc(C2CCN(CCN3CCC(NC(=O)c4ccc(-c5ccc(C#N)cc5)cc4)CC3)CC2)c1 | 700 nM
